Patent US8945540B2, “Compositions for enhancing the antibacterial activity of myeloperoxidase and methods of use thereof” (Exoxemis, Inc., priority 2008, dated 2015)
Read-outs that look alike come from different tables or passages of the source.

Legend:
[1] = system: Staphylococcus aureus; assay: Microbicidal activity of the myeloperoxidase system (p-MPO, glucose oxidase, glucose) with amino acids in the presence of blood, CFU plate counts; synergy determination from these CFU; format: cell-based; conditions: for Average Viability CFU/ml 50 min / Log Reduction 50 min: MPO 4.7 U/ml, GO 4.2 U/ml; for Predicted vs Actual: actual CFU as % of predicted value; for Predicted Average of Amino Acids: average of CFU of the individual D- and L-enantiomers; for Actual CFU: racemic mixture, standard conditions of Example 5
Protocol: Bacterial suspensions, specifically Staphylococcus aureus in this example, were prepared by the shake flask method to achieve late log to early stationary phase growth. Bacteria were grown 24 hours in trypticase soy broth (TSB) at 35° C. The cultures were centrifuged at 4,000 rpm for 10 minutes and the supernatants removed. The pellet was collected and washed twice with sterile 0.9% normal saline (NS). The washed microorganisms were suspended and diluted with normal saline to a 3 McFarland standard, i.e., approximately 10^9 bacteria colony forming units (CFU) per mL. Actual colony counts are confirmed by serial dilutions (10^−1 to 10^−5 or 10^−6) plated on TSA and incubated overnight at 35° C. To obtain an approximate final working target inoculum of 10^7 CFU/mL, 15 microliters of organisms per mL of final reaction mixture are used.
Glucose oxidase (GO) from Aspergillus Niger was purchased from Biozyme, Inc., UK, Cat #GO3A, 270 U/mg). Porcine Myeloperoxidase (p-MPO) (Exoxemis, Inc., Little Rock, Ark. U.S.A., 375 U/mg). Sterile stock solutions of D-glucose and sodium chloride were prepared and used at a final concentration of 150 mM each. L-Lysine hydrochloride (Spectrum Chemical Cat #L1142) was prepared as a 100 mM stock solution. Catalase (Sigma, Cat #C-40) was prepared as a 1% stock solution in sterile 0.9% normal saline. Blood was collected by venipuncture and used as whole blood within the same day.
Staphylococcus aureus were used to give a final target concentration of 2-3×10^7 CFU (7.4 log 10) per mL and venous whole blood was used to give a final concentration of 3%. Glucose was added to the reaction mixtures to a final concentration of 150 mM, which initiated the microbicidal reaction. The final volume of the reaction mixtures was 1 mL. The reactions were allowed to run from 30 minutes to 2 hours, as needed, at room temperature or at 37° C. in a dry bath. At the specified time points the reaction mixtures were treated with 100 microliters of a catalase solution, containing a minimum of 100 units/μL, to consume remaining peroxide and terminate the oxidative killing. Serial dilution plate counts were performed from the contents of each vial in sterile saline and inoculated onto trypticase soy agar (TSA) for quantitative culture. Plates were then incubated at 37° C. and counts taken at 24 hours. […] The results are shown in Table 1, as the average of 2 replicates.
The amino acids alone, in the absence of MPO were tested to rule out their microbicidal activity. The results are shown in Table 2 to Table 6, as the average of 2 replicates.
The amino acid analogues alone, in the absence of MPO, were tested to rule out their microbicidal activity. […]
The effect of two-way combinations of individual amino acids with L-isoleucine, as potential enhancing agents, for MPO microbicidal action in the presence of blood, was therefore examined by following the procedure of Example 5.
The Actual CFU observed for the pair is then divided by the Predicted CFU and multiplied by 100 to calculate the % of Predicted value. This value is then to be compared to the threshold value, discussed in the next section, to determine whether the pair are synergistic, antagonistic, or additive.
Calculation of appropriate threshold values for determination of synergism and antagonism was based upon the variability of replicated CFU survivor measures.

[2] = system: Staphylococcus aureus; assay: Control: microbicidal activity of the amino acid or analogue alone (no glucose, MPO, glucose oxidase) in the presence of blood; format: cell-based; conditions: for log reduction at 5000 µM: Staphylococcus aureus, 1 h, read-out: Log Reduction 60 min
Excerpt: As a control to determine the microbicidal activity of the amino acids alone, the foregoing procedure was followed without replication, except in the absence of glucose, MPO, and glucose oxidase.

[3] = Table 7, amino acid analogue 5 mM, MPO 38 U/ml, GO 33.3 U/ml, blood
[4] = amino acid analogue alone 5 mM, MPO 0, GO 0, no glucose, blood
[5] = Table 19, amino acid (racemic, L- or D-form) 2.5 mM, 50 min
[6] = Table 11, single amino acid 2.5 mM, in the presence of blood, 50 min
[7] = Table 14, single amino acid 2.5 mM, in the presence of blood, 50 min
[8] = MPO 100 μg/mL, AA 20 mM, 30 min
[9] = MPO 100 μg/mL, AA 20 mM, 60 min
[10] = single amino acid 2.5 mM, blood
[11] = Table 3, amino acid 5 mM (none: 0 mM), MPO 38 U/ml, GO 33.3 U/ml, blood
[12] = Table 13, single amino acid 2.5 mM, in the presence of blood, 50 min
[13] = amino acid alone 5 mM, MPO 0, GO 0, no glucose, blood, without replication

| Compound | Average Viability CFU/ml 60 min [1, 3] | Log Reduction 60 min [1, 3] | Average Viability CFU/ml 60 min [2, 4] | Average Viability CFU/ml 50 min [1, 5] | Log Reduction 50 min [1, 5] | Predicted vs Actual [1] | Predicted Average of Amino Acids [1] | Actual CFU [1] | also measured |
| --- | --- | --- | --- | --- | --- | --- | --- | --- | --- |
| Cl.NCC(N)C(=O)O (racemic) [DL-2,3-Diaminopropionic acid monohydrochloride] | 0 CFU/ml | 7.4 | 20600000 CFU/ml | – | – | – | – | – | log reduction at 5000 µM [2, 4]: 0 |
| CC(CN)C(=O)O (racemic) [DL-3-Aminoisobutyric acid] | 0 CFU/ml | 7.4 | 24200000 CFU/ml | – | – | – | – | – | Log Reduction 60 min [2, 4]: 0.0 |
| CC(C)CC(N)CC(=O)O (racemic) [DL-Beta-homoleucine] | 0 CFU/ml | 7.4 | 20500000 CFU/ml | – | – | – | – | – | log reduction at 5000 µM [2, 4]: 0 |
| CC[C@H](C)[C@H](N)C(=O)O (racemic) [d,l-Isoleucine] | – | – | – | 64000 CFU/ml | 2.7 | 39% | 162667 CFU | 64000 CFU | – |
| CC(C)CC(N)C(=O)O (racemic) [d,l-Leucine] | – | – | – | 650000 CFU/ml | 1.6 | 310% | 209500 CFU | 650000 CFU | – |
| NC(Cc1ccccc1)C(=O)O (racemic) [d,l-Phenylalanine] | – | – | – | 900000 CFU/ml | 1.4 | 9% | 9950000 CFU | 900000 CFU | synergistic, antagonistic or additive ([1]; from % of predicted value): synergistic (synergistic combinations with responses less than 25% of the predicted value) |
| CC(C)C(N)C(=O)O (racemic) [d,l-Valine] | – | – | – | 685000 CFU/ml | 1.5 | 187% | 367250 CFU | 685000 CFU | – |
| CC(N)CC(=O)O (stereo not shown) [3-Aminobutanoic acid] | 9 CFU/ml | 6.4 | 21300000 CFU/ml | – | – | – | – | – | log reduction at 5000 µM [2, 4]: 0 |
| CCOC(=O)CCN.Cl [Beta-Alanine ethyl ester hydrochloride] | 1195000 CFU/ml | 1.3 | 23100000 CFU/ml | – | – | – | – | – | log reduction at 5000 µM [2]: 0 |
| COC(=O)[C@@H](C)N [D-Ala methyl ester] | – | – | – | – | – | – | – | – | Average Viability CFU/ml 50 min [1, 6]: 9500000 CFU/ml; Log Reduction 50 min [1, 6]: 0.5; Average Viability CFU/ml 50 min [1, 7]: 8850000 CFU/ml; Log Reduction 50 min [1, 7]: 0.5 |
| COC(=O)[C@@H](C)N [D-Alanine methyl ester] | – | – | – | – | – | – | – | – | Log 10 (CFU + 1) Survivors ([1]; MPO 25 μg/mL, AA 5 mM, 30 min): 0.0; Log 10 (CFU + 1) Survivors ([1]; MPO 25 μg/mL, AA 5 mM, 60 min): 0.0; Log 10 (CFU + 1) Survivors ([1]; MPO 25 μg/mL, AA […], 30 min): 0.0; Log 10 (CFU + 1) Survivors ([1]; MPO 25 μg/mL, AA […], 60 min): 0.0; Log 10 (CFU + 1) Survivors ([1]; MPO 100 μg/mL, AA 5 mM, 30 min): 0.0; Log 10 (CFU + 1) Survivors ([1]; MPO 100 μg/mL, AA 5 mM, 60 min): 0.0; Log 10 (CFU + 1) Survivors [1, 8]: 0.0; Log 10 (CFU + 1) Survivors [1, 9]: 0.0; Average Viability CFU/ml 50 min [1, 10]: 5450000 CFU/ml; Log Reduction 50 min [1, 10]: 0.6 |
| C[C@@H](N)C(=O)O [D-Alanine] | – | – | – | – | – | – | – | – | Log 10 (CFU + 1) Survivors ([1]; MPO 25 μg/mL, AA 5 mM, 30 min): 7.3; Log 10 (CFU + 1) Survivors ([1]; MPO 25 μg/mL, AA 5 mM, 60 min): 3.7; Log 10 (CFU + 1) Survivors ([1]; MPO 25 μg/mL, AA […], 30 min): 7.3; Log 10 (CFU + 1) Survivors ([1]; MPO 25 μg/mL, AA […], 60 min): 6.7; Log 10 (CFU + 1) Survivors ([1]; MPO 100 μg/mL, AA 5 mM, 30 min): 6.8; Log 10 (CFU + 1) Survivors ([1]; MPO 100 μg/mL, AA 5 mM, 60 min): 0.6; Log 10 (CFU + 1) Survivors [1, 8]: 7.3; Log 10 (CFU + 1) Survivors [1, 9]: 0.0; Average Viability CFU/ml 60 min [1, 11]: 0 CFU/ml; Log 10 (CFU + 1) Survivors 60 min [1, 11]: 0.0; Log Reduction 60 min [1, 11]: 7.3; Average Viability CFU/ml 50 min [1, 12]: 1900000 CFU/ml; Log Reduction 50 min [1, 12]: 1.1; log reduction at 5000 µM [2, 13]: 0; Average Viability CFU/ml 60 min [2, 13]: 19600000 CFU/ml |
